From patent US9758485B2, “Compounds for controlling arthropods” (priority 2013, dated 2017)
Where two headings read alike, the source gives them in different places.

What was measured:
[1] = logP determination by HPLC on a reversed-phase column (C18), EEC Directive 79/831 Annex V.A8; format: physicochemical
Rhipicephalus sanguineus = Rhipicephalus sanguineus - in vitro contact tests with adult brown dog ticks; format: in vivo; conditions: application rate 5 μg/cm^2, after 48 h (dead or moribund)
Procedure, shortened: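 Test compound was dissolved in acetone p.a. (9 mg in 1 ml, then diluted), and 250 μl were spread evenly over the inner surface of 25 ml test tubes on an orbital shaker at 30 rpm for 2 h. Once the solvent evaporated, 5-10 adult Rhipicephalus sanguineus ticks were sealed in, kept dark at room temperature, and after 48 h placed on a 45-50° C. hotplate to score dead or moribund ticks.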

Ctenocephalides felis = Ctenocephalides felis - in vitro contact tests with adult cat fleas; format: in vivo; conditions: application rate 5 μg/cm^2 (=500 g/ha), after 48 h (dead or moribund)
Procedure, shortened: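 Acetone solution coated on test-tube inner walls (900 ppm gives 5 μg/cm^2). After drying, 5-10 adult cat fleas added and kept horizontal at room temperature and ambient humidity. At 48 h fleas knocked down; motionless or uncoordinated ones counted dead/moribund, giving % efficacy.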

Amblyomma hebraeum = Amblyomma hebraeum test (tick nymphs, immersion); format: in vivo; conditions: application rate 100 ppm; tick nymphs immersed for one minute; kill after 42 days
Procedure, shortened: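 Tick nymphs immersed for one minute in compound diluted in water from a DMSO concentrate, then held on filter paper in a Petri dish in a climate-controlled cabinet. Kill (%) scored after 42 days; 100% means all ticks dead, 0% none.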

Boophilus microplus = Boophilus microplus - injection test; format: in vivo; conditions: Rhipicephalus microplus, 168 h; application rate 20 μg/animal; injected into engorged adult female ticks; laying of fertile eggs, after 7 days; read-out: efficacy
Procedure, shortened: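 Engorged adult female Boophilus microplus ticks (5 per dose) each received a 1 μl abdominal injection of compound in DMSO and were held in a climate-controlled room. Efficacy was scored after 7 days from fertile egg laying, with unclear eggs kept until hatching (~42 days); 100% means no fertile eggs.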

[2] = tested on: Boophilus microplus Parkhurst strain, SP-resistant; assay: Boophilus microplus - dip test; format: in vivo; conditions: application rate 100 ppm; dip of engorged adult female ticks; laying of fertile eggs, after 7 days
Procedure, shortened: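 Adult engorged females of SP-resistant Parkhurst strain (8–10 per tube) fully immersed in compound diluted in water from a DMSO solution. Ticks then kept on filter discs in a climate-controlled room; efficacy scored from fertile egg laying at 7 days, with unclear eggs held about 42 days until hatch (100% = no fertile eggs).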

Lucilia cuprina = Lucilia cuprina test; format: in vivo; conditions: Lucilia cuprina, 48 h; application rate 100 ppm; L1 larvae in minced horsemeat; kill after 2 days; read-out: efficacy
Procedure, shortened: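 About 20 L1 larvae placed on minced horsemeat treated with compound, formulated in DMSO and diluted with water to test concentration. Kill in % scored after 2 days (100% = all larvae dead, 0% = none).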

Spodoptera frugiperda = Spodoptera frugiperda - spray test; format: in vivo; conditions: foliar, 168 h, application rate 100 g/ha, caterpillars on maize leaf discs, after 7 days, read-out: efficacy
Experimental: Spodoptera frugiperda—Spray Test
(§1) Solvent: 78.0 parts by weight of acetone and 1.5 parts by weight of dimethylformamide
(§2) Emulsifier: alkylaryl polyglycol ether
(§3) To produce an appropriate active ingredient formulation, 1 part by weight of active ingredient is dissolved using the specified parts by weight of solvent and made up with water containing an emulsifier concentration of 1000 ppm until the desired concentration is attained. To produce further test concentrations, the preparation is diluted with emulsifier-containing water.
Leaf discs of maize (Zea mays) are sprayed with an active ingredient formulation of the desired concentration and, after drying, populated with caterpillars of the armyworm (Spodoptera frugiperda).
After 7 days, efficacy in % is determined. 100% means that all the caterpillars have been killed; 0% means that no caterpillars have been killed.

Tetranychus urticae = Tetranychus urticae - spray test, OP-resistant; format: in vivo; conditions: foliar, 144 h, application rate 100 g/ha, bean leaf discs, after 6 days, read-out: efficacy
Experimental: Tetranychus urticae—Spray Test, OP-Resistant
as §1, §2, §3
Discs of bean leaves (Phaseolus vulgaris) infested by all stages of the greenhouse red spider mite (Tetranychus urticae) are sprayed with an active ingredient formulation of the desired concentration.
After 6 days, efficacy in % is determined. 100% means that all the spider mites have been killed; 0% means that none of the spider mites have been killed.

Cc1cc(C(F)(C(F)(F)F)C(F)(F)F)cc(C)c1-n1cc(-c2ccc(Cl)c(C(=O)NC3CC3)c2)cn1 [I-T3-1, 2-chloro-N-cyclopropyl-5-[1-[2,6-dimethyl-4-[1,2,2,2-tetrafluoro-1-(trifluoromethyl)ethyl]phenyl]pyrazol-4-yl]benzamide]
chromatographic logP ([1]; reversed-phase HPLC column (C18), HPLC, reversed-phase C18, acetonitrile/water with formic acid, 55° C., read-out: logP): 4.36
chromatographic logP ([1]; reversed-phase HPLC column (C18), HPLC-MS method a), Table I-T3; read-out: logP^a)): 4.4
chromatographic logP ([1]; reversed-phase HPLC column (C18), HPLC-MS method a); read-out: logP^a)): 4.4
efficacy (Rhipicephalus sanguineus): 100%
efficacy (Ctenocephalides felis): 100%
efficacy (Amblyomma hebraeum): 100%
pest or weed control at 0.02 mg (Boophilus microplus): 100%
efficacy [2]: 100%
pest or weed control at 100 ppm (Lucilia cuprina): 100%
pest or weed control at 100 g/ha (Spodoptera frugiperda): 100%
pest or weed control at 100 g/ha (Tetranychus urticae): 100%
